{
  "source": "patent US20170045513A1",
  "about": "“METHODS OF DIAGNOSING CELIAC DISEASE USING IP-10” (ImmusanT, Inc., priority 2014, published 2017)",
  "system": "gluten-reactive T cells",
  "test": "96-well plate whole blood cytokine release, IP-10 by MAGPIX multiplex bead assay",
  "type": "cell-based, human",
  "settings": "for Percent of maximal response to individual gluten peptides, IP-10: after oral gluten challenge; for IP-10 WB MAGPIX % max Mean: n = 10, blood after oral gluten challenge, individual peptides 5 μM (Peptide 2* of P14, Pepscan: 10 μg/mL (5.45 μM))",
  "note": "Non-standard residues stand in square brackets, D forms with d. pGlu = O=C1CC[C@@H](C(=O)O)N1",
  "data": [
    {"substance": "(pE)QPYPQPELPYPQPQ-amide ([pGlu]QPYPQPELPYPQPQ-NH2; SMILES CC(C)C[C@H](NC(=O)[C@H](CCC(=O)O)NC(=O)[C@@H]1CCCN1C(=O)[C@H](CCC(N)=O)NC(=O)[C@@H]1CCCN1C(=O)[C@H](Cc1ccc(O)cc1)NC(=O)[C@@H]1CCCN1C(=O)[C@H](CCC(N)=O)NC(=O)[C@@H]1CCC(=O)N1)C(=O)N1CCC[C@H]1C(=O)N[C@@H](Cc1ccc(O)cc1)C(=O)N1CCC[C@H]1C(=O)N[C@@H](CCC(N)=O)C(=O)N1CCC[C@H]1C(=O)N[C@@H](CCC(N)=O)C(N)=O) [Peptide 15]", "values": [
      {"measurement": "Percent of maximal response to individual gluten peptides, IP-10", "setting": "Subject 1, Max. 2331 pg/mL", "value": "4 % of max"},
      {"measurement": "Percent of maximal response to individual gluten peptides, IP-10", "setting": "Subject 2, Max. 3646 pg/mL", "value": "30 % of max"},
      {"measurement": "Percent of maximal response to individual gluten peptides, IP-10", "setting": "Subject 3, Max. 9492 pg/mL", "value": "≥ 100 % of max"},
      {"measurement": "Percent of maximal response to individual gluten peptides, IP-10", "setting": "Subject 4, Max. 9463 pg/mL", "value": "67 % of max"},
      {"measurement": "Percent of maximal response to individual gluten peptides, IP-10", "setting": "Subject 5, Max. 9336 pg/mL", "value": "33 % of max"},
      {"measurement": "Percent of maximal response to individual gluten peptides, IP-10", "setting": "Subject 6, Max. 5863 pg/mL", "value": "0 % of max"},
      {"measurement": "Percent of maximal response to individual gluten peptides, IP-10", "setting": "Subject 7, Max. 2330 pg/mL", "value": "6 % of max"},
      {"measurement": "Percent of maximal response to individual gluten peptides, IP-10", "setting": "Subject 8, Max. 4019 pg/mL", "value": "5 % of max"},
      {"measurement": "Percent of maximal response to individual gluten peptides, IP-10", "setting": "Subject 9, Max. 8349 pg/mL", "value": "69 % of max"},
      {"measurement": "Percent of maximal response to individual gluten peptides, IP-10", "setting": "Subject 10, Max. 8922 pg/mL", "value": "17 % of max"},
      {"measurement": "IP-10 WB MAGPIX % max Mean", "value": 33, "unit": "% max"}
    ]},
    {"substance": "(pE)QPFPQPELPYPYPQ-amide ([pGlu]QPFPQPELPYPYPQ-NH2; SMILES CC(C)C[C@H](NC(=O)[C@H](CCC(=O)O)NC(=O)[C@@H]1CCCN1C(=O)[C@H](CCC(N)=O)NC(=O)[C@@H]1CCCN1C(=O)[C@H](Cc1ccccc1)NC(=O)[C@@H]1CCCN1C(=O)[C@H](CCC(N)=O)NC(=O)[C@@H]1CCC(=O)N1)C(=O)N1CCC[C@H]1C(=O)N[C@@H](Cc1ccc(O)cc1)C(=O)N1CCC[C@H]1C(=O)N[C@@H](Cc1ccc(O)cc1)C(=O)N1CCC[C@H]1C(=O)N[C@@H](CCC(N)=O)C(N)=O) [Peptide 16]", "values": [
      {"measurement": "Percent of maximal response to individual gluten peptides, IP-10", "setting": "Subject 1, Max. 2331 pg/mL", "value": "16 % of max"},
      {"measurement": "Percent of maximal response to individual gluten peptides, IP-10", "setting": "Subject 2, Max. 3646 pg/mL", "value": "45 % of max"},
      {"measurement": "Percent of maximal response to individual gluten peptides, IP-10", "setting": "Subject 3, Max. 9492 pg/mL", "value": "≥ 100 % of max"},
      {"measurement": "Percent of maximal response to individual gluten peptides, IP-10", "setting": "Subject 4, Max. 9463 pg/mL", "value": "69 % of max"},
      {"measurement": "Percent of maximal response to individual gluten peptides, IP-10", "setting": "Subject 5, Max. 9336 pg/mL", "value": "35 % of max"},
      {"measurement": "Percent of maximal response to individual gluten peptides, IP-10", "setting": "Subject 6, Max. 5863 pg/mL", "value": "4 % of max"},
      {"measurement": "Percent of maximal response to individual gluten peptides, IP-10", "setting": "Subject 7, Max. 2330 pg/mL", "value": "800 % of max"},
      {"measurement": "Percent of maximal response to individual gluten peptides, IP-10", "setting": "Subject 8, Max. 4019 pg/mL", "value": "1 % of max"},
      {"measurement": "Percent of maximal response to individual gluten peptides, IP-10", "setting": "Subject 9, Max. 8349 pg/mL", "value": "60 % of max"},
      {"measurement": "Percent of maximal response to individual gluten peptides, IP-10", "setting": "Subject 10, Max. 8922 pg/mL", "value": "11 % of max"},
      {"measurement": "IP-10 WB MAGPIX % max Mean", "value": 42, "unit": "% max"}
    ]},
    {"substance": "(pE)PQPYPEQPQPFPQQ-amide ([pGlu]PQPYPEQPQPFPQQ-NH2; SMILES NC(=O)CC[C@H](NC(=O)[C@H](CCC(N)=O)NC(=O)[C@@H]1CCCN1C(=O)[C@H](Cc1ccccc1)NC(=O)[C@@H]1CCCN1C(=O)[C@H](CCC(N)=O)NC(=O)[C@@H]1CCCN1C(=O)[C@H](CCC(N)=O)NC(=O)[C@H](CCC(=O)O)NC(=O)[C@@H]1CCCN1C(=O)[C@H](Cc1ccc(O)cc1)NC(=O)[C@@H]1CCCN1C(=O)[C@H](CCC(N)=O)NC(=O)[C@@H]1CCCN1C(=O)[C@@H]1CCC(=O)N1)C(N)=O) [Peptide 8]", "values": [
      {"measurement": "Percent of maximal response to individual gluten peptides, IP-10", "setting": "Subject 1, Max. 2331 pg/mL", "value": "0 % of max"},
      {"measurement": "Percent of maximal response to individual gluten peptides, IP-10", "setting": "Subject 2, Max. 3646 pg/mL", "value": "5 % of max"},
      {"measurement": "Percent of maximal response to individual gluten peptides, IP-10", "setting": "Subject 3, Max. 9492 pg/mL", "value": "≥ 100 % of max"},
      {"measurement": "Percent of maximal response to individual gluten peptides, IP-10", "setting": "Subject 4, Max. 9463 pg/mL", "value": "≥ 100 % of max"},
      {"measurement": "Percent of maximal response to individual gluten peptides, IP-10", "setting": "Subject 5, Max. 9336 pg/mL", "value": "45 % of max"},
      {"measurement": "Percent of maximal response to individual gluten peptides, IP-10", "setting": "Subject 6, Max. 5863 pg/mL", "value": "2 % of max"},
      {"measurement": "Percent of maximal response to individual gluten peptides, IP-10", "setting": "Subject 7, Max. 2330 pg/mL", "value": "0 % of max"},
      {"measurement": "Percent of maximal response to individual gluten peptides, IP-10", "setting": "Subject 8, Max. 4019 pg/mL", "value": "39 % of max"},
      {"measurement": "Percent of maximal response to individual gluten peptides, IP-10", "setting": "Subject 9, Max. 8349 pg/mL", "value": "31 % of max"},
      {"measurement": "Percent of maximal response to individual gluten peptides, IP-10", "setting": "Subject 10, Max. 8922 pg/mL", "value": "94 % of max"},
      {"measurement": "IP-10 WB MAGPIX % max Mean", "value": 42, "unit": "% max"}
    ]},
    {"substance": "(pE)QPFPQPEQPTPIQPEQP-amide ([pGlu]QPFPQPEQPTPIQPEQP-NH2; SMILES CC[C@H](C)[C@H](NC(=O)[C@@H]1CCCN1C(=O)[C@@H](NC(=O)[C@@H]1CCCN1C(=O)[C@H](CCC(N)=O)NC(=O)[C@H](CCC(=O)O)NC(=O)[C@@H]1CCCN1C(=O)[C@H](CCC(N)=O)NC(=O)[C@@H]1CCCN1C(=O)[C@H](Cc1ccccc1)NC(=O)[C@@H]1CCCN1C(=O)[C@H](CCC(N)=O)NC(=O)[C@@H]1CCC(=O)N1)[C@@H](C)O)C(=O)N[C@@H](CCC(N)=O)C(=O)N1CCC[C@H]1C(=O)N[C@@H](CCC(=O)O)C(=O)N[C@@H](CCC(N)=O)C(=O)N1CCC[C@H]1C(N)=O) [Peptide 5]", "values": [
      {"measurement": "Percent of maximal response to individual gluten peptides, IP-10", "setting": "Subject 1, Max. 2331 pg/mL", "value": "0 % of max"},
      {"measurement": "Percent of maximal response to individual gluten peptides, IP-10", "setting": "Subject 2, Max. 3646 pg/mL", "value": "13 % of max"},
      {"measurement": "Percent of maximal response to individual gluten peptides, IP-10", "setting": "Subject 3, Max. 9492 pg/mL", "value": "≥ 100 % of max"},
      {"measurement": "Percent of maximal response to individual gluten peptides, IP-10", "setting": "Subject 4, Max. 9463 pg/mL", "value": "46 % of max"},
      {"measurement": "Percent of maximal response to individual gluten peptides, IP-10", "setting": "Subject 5, Max. 9336 pg/mL", "value": "13 % of max"},
      {"measurement": "Percent of maximal response to individual gluten peptides, IP-10", "setting": "Subject 6, Max. 5863 pg/mL", "value": "1 % of max"},
      {"measurement": "Percent of maximal response to individual gluten peptides, IP-10", "setting": "Subject 7, Max. 2330 pg/mL", "value": "2 % of max"},
      {"measurement": "Percent of maximal response to individual gluten peptides, IP-10", "setting": "Subject 8, Max. 4019 pg/mL", "value": "4 % of max"},
      {"measurement": "Percent of maximal response to individual gluten peptides, IP-10", "setting": "Subject 9, Max. 8349 pg/mL", "value": "10 % of max"},
      {"measurement": "Percent of maximal response to individual gluten peptides, IP-10", "setting": "Subject 10, Max. 8922 pg/mL", "value": "60 % of max"},
      {"measurement": "IP-10 WB MAGPIX % max Mean", "value": 25, "unit": "% max"}
    ]},
    {"substance": "(pE)PEQPIPEQPQPYPQQ-amide ([pGlu]PEQPIPEQPQPYPQQ-NH2; SMILES CC[C@H](C)[C@H](NC(=O)[C@@H]1CCCN1C(=O)[C@H](CCC(N)=O)NC(=O)[C@H](CCC(=O)O)NC(=O)[C@@H]1CCCN1C(=O)[C@@H]1CCC(=O)N1)C(=O)N1CCC[C@H]1C(=O)N[C@@H](CCC(=O)O)C(=O)N[C@@H](CCC(N)=O)C(=O)N1CCC[C@H]1C(=O)N[C@@H](CCC(N)=O)C(=O)N1CCC[C@H]1C(=O)N[C@@H](Cc1ccc(O)cc1)C(=O)N1CCC[C@H]1C(=O)N[C@@H](CCC(N)=O)C(=O)N[C@@H](CCC(N)=O)C(N)=O) [Peptide 3]", "values": [
      {"measurement": "Percent of maximal response to individual gluten peptides, IP-10", "setting": "Subject 1, Max. 2331 pg/mL", "value": "51 % of max"},
      {"measurement": "Percent of maximal response to individual gluten peptides, IP-10", "setting": "Subject 2, Max. 3646 pg/mL", "value": "14 % of max"},
      {"measurement": "Percent of maximal response to individual gluten peptides, IP-10", "setting": "Subject 3, Max. 9492 pg/mL", "value": "≥ 100 % of max"},
      {"measurement": "Percent of maximal response to individual gluten peptides, IP-10", "setting": "Subject 4, Max. 9463 pg/mL", "value": "≥ 100 % of max"},
      {"measurement": "Percent of maximal response to individual gluten peptides, IP-10", "setting": "Subject 5, Max. 9336 pg/mL", "value": "53 % of max"},
      {"measurement": "Percent of maximal response to individual gluten peptides, IP-10", "setting": "Subject 6, Max. 5863 pg/mL", "value": "43 % of max"},
      {"measurement": "Percent of maximal response to individual gluten peptides, IP-10", "setting": "Subject 7, Max. 2330 pg/mL", "value": "5 % of max"},
      {"measurement": "Percent of maximal response to individual gluten peptides, IP-10", "setting": "Subject 8, Max. 4019 pg/mL", "value": "100 % of max"},
      {"measurement": "Percent of maximal response to individual gluten peptides, IP-10", "setting": "Subject 9, Max. 8349 pg/mL", "value": "85 % of max"},
      {"measurement": "Percent of maximal response to individual gluten peptides, IP-10", "setting": "Subject 10, Max. 8922 pg/mL", "value": "≥ 100 % of max"},
      {"measurement": "IP-10 WB MAGPIX % max Mean", "value": 65, "unit": "% max"},
      {"measurement": "whole blood IP-10 release relative to that stimulated by Peptide 14", "setting": "whole blood incubations after oral gluten challenge", "value": "one-quarter less"}
    ]}
  ]
}
